Reference: the NIST ThermoML archive (doi:10.1021/acs.jced.8b00854)
± gives the expanded uncertainty stated by the source.

Assay: refractive index (Na D-line) (dimensionless); xn = mol fraction of the nth substance listed
Conditions: 100 kPa, Liquid, Standard Abbe refractometry

CCCCCCCCOS(=O)(=O)[O-].CCCCn1cc[n+](C)c1 [1-butyl-3-methylimidazolium octyl sulfate] + O
refractive index
Conditions | x1 = 0.1002 | x1 = 0.2002 | x1 = 0.3004 | x1 = 0.4004 | x1 = 0.501 | x1 = 0.5998 | x1 = 0.6988 | x1 = 0.8 | x1 = 0.9018
293.15 K | 1.4235 ± 0.0027 | 1.4455 ± 0.0016 | 1.4555 ± 0.0016 | 1.461 ± 0.0016 | 1.464 ± 0.0016 | 1.467 ± 0.0016 | 1.4685 ± 0.0017 | 1.47 ± 0.0016 | 1.4705 ± 0.0016
303.15 K | 1.422 ± 0.002 | 1.4435 ± 0.0016 | 1.453 ± 0.002 | 1.4585 ± 0.0016 | 1.462 ± 0.002 | 1.4645 ± 0.0016 | 1.466 ± 0.002 | 1.4675 ± 0.0017 | 1.4685 ± 0.0017
313.15 K | 1.4215 ± 0.0016 | 1.4415 ± 0.0016 | 1.4525 ± 0.0016 | 1.457 ± 0.0016 | 1.4595 ± 0.0016 | 1.462 ± 0.0016 | 1.4635 ± 0.0017 | 1.465 ± 0.0017 | 1.466 ± 0.0017
323.15 K | 1.421 ± 0.0016 | 1.4405 ± 0.0016 | 1.45 ± 0.0016 | 1.4555 ± 0.0016 | 1.457 ± 0.0016 | 1.46 ± 0.0016 | 1.461 ± 0.0017 | 1.462 ± 0.0017 | 1.4635 ± 0.0017
333.15 K | 1.419 ± 0.0016 | 1.44 ± 0.0016 | 1.4495 ± 0.0016 | 1.4535 ± 0.0016 | 1.4545 ± 0.0016 | 1.4575 ± 0.0016 | 1.4585 ± 0.0016 | 1.46 ± 0.0016 | 1.461 ± 0.0017
343.15 K | 1.419 ± 0.0029 | 1.4395 ± 0.0017 | 1.4465 ± 0.0017 | 1.452 ± 0.0017 | 1.453 ± 0.0016 | 1.4565 ± 0.0016 | 1.457 ± 0.0016 | 1.458 ± 0.0016 | 1.459 ± 0.0016
